Assay results reported in patent publication US20040092438A1, “Gd3-synthesis inhibitors for treating neuropathological disorders” (priority 1999, published 2004).

Assays:
[1] = test system: GD3 levels in the ischemic hemisphere; assay: GD3 levels in brain after MCA occlusion (thin-layer chromatography); format: in vivo, mice (C57BL6 strain); conditions: single i.p. 100 mg/kg with piperonyl butoxide 400 mg/kg, 15 min after MCA occlusion; 90-minute occlusion, 24-hour reperfusion
Procedure: (§3) This was done by pushing a siliconized nylon suture through the common carotid artery as far as the MCA and stopping the blood flow through the MCA. After 90 min, the thread was withdrawn and thus the blood circulation was restored. The animals were under deep anesthesia (ketamine and Rompun; each 150 mg/kg of bodyweight) and the rectal temperature was maintained at about 37° C. with heat lamps and a heated cushion throughout the operation. After an observation period of 24 hours, the animals were again anesthetized, and the brains were dissected after perfusion.
Thus, tissues and cells were disrupted by two freeze-thaw cycles. The polar lipids were extracted, and the gangliosides were chromatographed on silica gel plates 60 for high performance thin-layer chromatography (HPTLC) (Merck, Darmstadt, Germany), dried and visualized with resorcinol. […] For the immunostaining, the plates were coated with 0.5% poly(isobutyl methacrylate) in hexane, dried, incubated with the monoclonal antibody R24 (IgG3) directed against GD3 for 1 h, and read via the immunoperoxidase stain. The bands were then scanned and analyzed by densitometry using the AIDA-1000/1B image analyzer (Raytest Isotopenmessgerate, Straubenhardt, Germany).

focal cerebral ischemia = conditions: single i.p. 100 mg/kg with piperonyl butoxide; p <0.007
Procedure: as §3
The stained sections were scanned directly (MCID-M4,3.0; Imaging Res. Inc.). […] The significance was determined by the Mann-Whitney test. […] Averaging took place with the Scion-Image b 3.b.

primary neurons [2] = assay: Oxygen/glucose deficiency in vitro, specific death of primary neurons; format: cell-based, mouse; conditions: 80 nM added 48 h before 6-hour oxygen/glucose deficiency, then reperfusion; relative to ST8-Sc-treated neurons
Procedure: Neurons were obtained from transgenic mice whose acid sphingomyelinase had been inactivated (ASM^−/−; Hirunouchi, K., et al., Nature Genetics 10, 288-294 (1995)) and wild-type mice of the same generation (ASM^+/+). Primary neuron cultures were prepared from 15- to 17-day mouse fetuses as previously described by Dawson, T. M., et al, Ann. neurol. 30, 843-6 (1991). […] The cells were applied to polyornithine-coated 24-well plates (Sigma, Deisenhofen, Germany). After 4 days, the cells were treated with cytosine arabinoside (5 μM) for a further four days in order to inhibit the proliferation of non-neural cells. The cell cultures were then kept at 8% CO2 and 37° C. in MEM, 10% horse serum, 25 mM glucose and 2 mM L-glutamine in a humidity incubator. The neurons were allowed to mature in culture for at least 8 days before being used for the experiment. The proportion of glial cells in the culture was determined using an antibody directed against glial fibrillary acidic protein (GFAP) to be less than 10%. […]
(§1) The percentage of dead cells was determined by trypan blue exclusion and expressed as percentage of the specific death. This was calculated as follows:
(§2) % specific death=(detected death−spontaneous death)/(100−spontaneous death)×100

GD3 synthase = assay: GD3 levels in neurons after oxygen/glucose deficiency and reperfusion (thin-layer chromatography); format: cell-based, mouse; conditions: 80 nM added 48 h before 6-hour oxygen/glucose deficiency, 24-hour reperfusion; relative to ST8-Sc-treated neurons
Procedure: The procedure for generating a combined oxygen/glucose deficiency was known per se (Kaku, D. A., et al., Brain Res. 554:344-7; Monyer, H. et al., Neuron 8, 967-73 (1992); with slight modifications). The culture medium was replaced by MEM, 1% horse serum and 2 mM L-glutamine. The cultures were kept in an anaerobic chamber which contained a gas mixture comprising […], 85% N2 and 5% CO2, at 37° C. and 100% humidity for 6 h. The oxygen/glucose deficiency was abolished by removing the cultures from the chamber and adding horse serum and glucose to a final concentration of 10% and 25 mM respectively. The cultures were then replaced in a humidity incubator containing 8% CO2 and atmospheric oxygen for a further 3 h, 18 h or 24 h. […]
GD3 was determined as previously described by De Maria, R., et al., Science 277, 1652-5 (1997). […] For the immunostaining, the plates were coated with 0.5% poly(isobutyl methacrylate) in hexane, dried, incubated with the monoclonal antibody R24 (IgG3) directed against GD3 for 1 h, and read via the immunoperoxidase stain. The bands were then scanned and analyzed by densitometry using the AIDA-1000/1B image analyzer (Raytest Isotopenmessgerate, Straubenhardt, Germany).

primary neurons [3] = assay: Neuronal death after addition of gangliosides to cortical neuron cultures; format: cell-based, mouse; conditions: 24 h after addition of 500 μM (highest dose) to cortical neuronal cells
Procedure: Neurons were obtained from transgenic mice whose acid sphingomyelinase had been inactivated (ASM^−/−; Hirunouchi, K., et al., Nature Genetics 10, 288-294 (1995)) and wild-type mice of the same generation (ASM^+/+). Primary neuron cultures were prepared from 15- to 17-day mouse fetuses as previously described by Dawson, T. M., et al, Ann. neurol. 30, 843-6 (1991). […] The cells were applied to polyornithine-coated 24-well plates (Sigma, Deisenhofen, Germany). After 4 days, the cells were treated with cytosine arabinoside (5 μM) for a further four days in order to inhibit the proliferation of non-neural cells. The cell cultures were then kept at 8% CO2 and 37° C. in MEM, 10% horse serum, 25 mM glucose and 2 mM L-glutamine in a humidity incubator. The neurons were allowed to mature in culture for at least 8 days before being used for the experiment. The proportion of glial cells in the culture was determined using an antibody directed against glial fibrillary acidic protein (GFAP) to be less than 10%.
as §1, §2
Cortical neuronal cells were treated with increasing doses of GD3. […]

CCCCCCCCCC(=O)N[C@H](CN1CCOCC1)[C@H](O)c1ccccc1 [D-PDMP, D-threo-1-phenyl-2-decanoylamino-3-morpholino-1-propanol]
increase in GD3 on the ischemic side compared with the non-ischemic side [1]: 10%
reduction in the lesion caused by stroke compared with untreated ischemic animals (focal cerebral ischemia): 90%

GD3 synthase antisense oligodeoxynucleotides: antisense oligodeoxynucleotides against GD3 synthase (SEQ ID NO:2) (antisense CAGTACAGCCATGGCCCCTCT; DNA, backbone and methylation of C not given here)
mortality, % of the level in cultures treated with randomly arranged sequence (primary neurons [2]): 50%
accumulation of GD3, % of controls (GD3 synthase): 55%

II^3(NeuAc-α-2,8-NeuAc)LacCer [GD3]
specific neuronal death (primary neurons [3]): up to 80%
